# In article PMC10258794, “To Fold or Not to Fold: Diastereomeric Optimization of an α-Helical Antimicrobial Peptide” (Journal of Medicinal Chemistry, 2023):
# Like-named read-outs stand apart in the source and are kept apart here.
# What was measured:
# P. aeruginosa PAO1 = system: P. aeruginosa PAO1
# Method in brief: (§1)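 A colony was grown overnight in LB at 37 °C, diluted in MH medium pH 7.4 to OD600 0.022 and added to 1/2 serial dilutions of compound (final about 5 × 10^5 CFU).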
# [1] = system: Pseudomonas aeruginosa, Klebsiella pneumoniae, Acinetobacter baumannii, Escherichia coli, and methicillin-resistant Staphylococcus aureus; settings: summary of Table 1
# Method in brief: as §1
# E. coli W3110 = system: E. coli W3110
# Method in brief: as §1
# A. baumannii ATCC19606 = system: A. baumannii ATCC19606
# Method in brief: as §1
# [2] = EYPC vesicle leakage assay; format: biochemical; settings: 10 μg/mL of compound; 10 mM TRIS, 107 mM NaCl, pH 7.4
# Experimental: 5(6)-carboxyfluorescein (CF) was purchased from Sigma. EYPC, EYPG, and a Mini-Extruder were purchased from Avanti Polar Lipids. Egg PC or Egg PG thin lipid layers were prepared by evaporating a solution of 100 mg of EYPC or EYPG in 4 mL of MeOH/CHCl3 (1:1) on a rotary evaporator at room temperature and then dried in vacuo overnight. […] Extravesicular components were removed by gel filtration (Sephadex G-50) with 10 mM TRIS, 107 mM NaCl, pH 7.4 buffer. Final conditions: ∼2.5 mM PC or PG; inside: 50 mM CF, 10 mM TRIS, 10 mM NaCl, pH 7.4 buffer; outside: 10 mM TRIS, 107 mM NaCl, pH 7.4. […] The CF efflux was monitored at λem 517 nm (λex 492 nm) as a function of time after addition of the desired volume of peptide from 2 mg/mL stock in mQ water at t = 45 s, 10 and 50 μg/mL were monitored for both EYPC and EYPG. […] Fluorescence intensities were then normalized to the maximal emission intensity using I(t) = (It – I0)/(I∞ – I0) where I0 = It at peptide addition, I∞ = It at saturation of lysis.
# [3] = MH broth pH 7.4, 16–20 h, 37 °C
# [4] = supplementary CSV, ranges of Table 1 given as one number
compound,measurement,setting,value
"CC(C)C[C@H](NC(=O)[C@H](CC(C)C)NC(=O)[C@H](CC(C)C)NC(=O)[C@@H](CCCCN)NC(=O)[C@@H](CC(C)C)NC(=O)[C@@H](CC(C)C)NC(=O)[C@@H](CCCCN)NC(=O)[C@H](CC(C)C)NC(=O)[C@H](CC(C)C)NC(=O)[C@H](CCCCN)NC(=O)[C@@H](N)CCCCN)C(N)=O [HP13, KKLLkllkLLL]",MIC P. aeruginosa PAO1,P. aeruginosa PAO1; [3],16 to 32 mg/L
same,MIC P. aeruginosa PAO1,P. aeruginosa PAO1; [4],24 mg/L
same,"MIC, span over E. coli, P. aeruginosa, and A. baumannii",[1],4 to 32 mg/L
same,MIC E. coli W3110,E. coli W3110; [3],4 to 8 mg/L
same,MIC E. coli W3110,E. coli W3110; [4],6 mg/L
same,MIC A. baumannii ATCC19606,A. baumannii ATCC19606; [3],16 to 32 mg/L
same,MIC A. baumannii ATCC19606,A. baumannii ATCC19606; [4],24 mg/L
same,EYPC vesicle leakage (%),[2],8%
"CC(C)C[C@H](NC(=O)[C@H](CC(C)C)NC(=O)[C@@H](CC(C)C)NC(=O)[C@H](CCCCN)NC(=O)[C@@H](CC(C)C)NC(=O)[C@@H](CC(C)C)NC(=O)[C@H](CCCCN)NC(=O)[C@@H](CC(C)C)NC(=O)[C@@H](CC(C)C)NC(=O)[C@H](CCCCN)NC(=O)[C@@H](N)CCCCN)C(N)=O [HP25, KKllKllKlLL]",MIC P. aeruginosa PAO1,P. aeruginosa PAO1; [3],8 to 16 mg/L
same,MIC P. aeruginosa PAO1,P. aeruginosa PAO1; [4],12 mg/L
same,"MIC, span over E. coli, P. aeruginosa, and A. baumannii",[1],4 to 32 mg/L
same,MIC E. coli W3110,E. coli W3110; [3],8 to 16 mg/L
same,MIC E. coli W3110,E. coli W3110; [4],12 mg/L
same,MIC A. baumannii ATCC19606,A. baumannii ATCC19606; [3],32 mg/L
same,MIC A. baumannii ATCC19606,A. baumannii ATCC19606; [4],32 mg/L
same,EYPC vesicle leakage (%),[2],4%
